Source: PubChem BioAssay AID2060509 (Molecular Pharmacology Branch, DTP, NCI, 2025)

System: 485176-168-R4-J1-PDC spheroids with HUVEC/MSC, viability
Assay: Anticancer human tumor 485176-168-R4-J1-PDC patient-derived pancreatic adenocarcinoma cell line growth inhibition [GQUAD]
Conditions: for IC50: curve of first compound; for viability, T/C: stronger effect = lower value
Summary of the method: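 Viability of tumor cells grown as complex spheroids with endothelial and stromal cells, exposed to drug combinations. Top concentration at or near clinical Cmax (else 10 microM), diluted in half-log increments.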

[1] = second compound 0.0316 µM, first compound 0.0316 µM
[2] = second compound 0.0316 µM, first compound 0.1 µM
[3] = second compound 0.0316 µM, first compound 0.316 µM
[4] = second compound 0.0316 µM, first compound 1 µM
[5] = second compound 0.0316 µM, first compound 3.16 µM
[6] = second compound 0.0316 µM, first compound 10 µM
[7] = second compound 0.1 µM, first compound 0.0316 µM
[8] = second compound 0.1 µM, first compound 0.1 µM
[9] = second compound 0.1 µM, first compound 0.316 µM
[10] = second compound 0.1 µM, first compound 1 µM
[11] = second compound 0.1 µM, first compound 3.16 µM
[12] = second compound 0.1 µM, first compound 10 µM
[13] = second compound 0.316 µM, first compound 0.0316 µM
[14] = second compound 0.316 µM, first compound 0.1 µM
[15] = second compound 0.316 µM, first compound 0.316 µM
[16] = second compound 0.316 µM, first compound 1 µM
[17] = second compound 0.316 µM, first compound 3.16 µM
[18] = second compound 0.316 µM, first compound 10 µM
[19] = second compound 1 µM, first compound 0.0316 µM
[20] = second compound 1 µM, first compound 0.1 µM
[21] = second compound 1 µM, first compound 0.316 µM
[22] = second compound 1 µM, first compound 1 µM
[23] = second compound 1 µM, first compound 3.16 µM
[24] = second compound 1 µM, first compound 10 µM
[25] = second compound 3.16 µM, first compound 0.0316 µM
[26] = second compound 3.16 µM, first compound 0.1 µM
[27] = second compound 3.16 µM, first compound 0.316 µM
[28] = second compound 3.16 µM, first compound 1 µM
[29] = second compound 3.16 µM, first compound 3.16 µM
[30] = second compound 3.16 µM, first compound 10 µM
[31] = second compound 10 µM, first compound 0.0316 µM
[32] = second compound 10 µM, first compound 0.1 µM
[33] = second compound 10 µM, first compound 0.316 µM
[34] = second compound 10 µM, first compound 1 µM
[35] = second compound 10 µM, first compound 3.16 µM
[36] = second compound 10 µM, first compound 10 µM
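Note: spheroids exposed to compounds for seven days before readout.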
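Throughout, for viability, T/C: percent viability relative to DMSO vehicle control wells as 100%.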

In the case of `CC(=O)O[C@H]1C(=O)[C@@]2(C)[C@H]([C@H](OC(=O)c3ccccc3)[C@]3(O)C[C@H](OC(=O)[C@H](O)[C@@H](NC(=O)c4ccccc4)c4ccccc4)C(C)=C1C3(C)C)[C@]1(OC(C)=O)CO[C@@H]1C[C@@H]2O` + Cc1cnc(CNC(=O)c2c(=O)c3ccc(N4CCCN(C)CC4)nc3n3c2sc2ccccc23)cn1, the IC50 (second compound 0.0316 µM) is reported as under 0.0316 µM, the IC50 (second compound 0.1 µM) is reported as under 0.0316 µM and the IC50 (second compound 0.316 µM) is reported as under 0.0316 µM. The IC50 (second compound 1 µM) was under 0.0316 µM, the IC50 (second compound 3.16 µM) was under 0.0316 µM and the IC50 (second compound 10 µM) was under 0.0316 µM. The viability, T/C [1] was 30%, the viability, T/C [2] was 13.6% and the viability, T/C [3] was 11.2%. For the same compound, the viability, T/C [4] was 12.7%, the viability, T/C [5] was 10.6% and the viability, T/C [6] was 9.91%. The viability, T/C [7] was 27.1%, the viability, T/C [8] was 19% and the viability, T/C [9] was 12%. It also gave a viability, T/C [10] of 12.8%, a viability, T/C [11] of 11.7% and a viability, T/C [12] of 9.87%. It also gave a viability, T/C [13] of 22%, a viability, T/C [14] of 14.2% and a viability, T/C [15] of 10.4%. The viability, T/C [16] was 11.8%, the viability, T/C [17] was 13.8% and the viability, T/C [18] was 12.9%. The viability, T/C [19] was 23.1%, the viability, T/C [20] was 17.3% and the viability, T/C [21] was 17.5%. It also gave a viability, T/C [22] of 11.9%, a viability, T/C [23] of 11.8% and a viability, T/C [24] of 14.7%. The viability, T/C [25] was 26%, the viability, T/C [26] was 17.8% and the viability, T/C [27] was 12.8%. It also gave a viability, T/C [28] of 12.8%, a viability, T/C [29] of 15.3% and a viability, T/C [30] of 12.7%. It also gave a viability, T/C [31] of 23.4%, a viability, T/C [32] of 14.8% and a viability, T/C [33] of 14.5%. For the same compound, the viability, T/C [34] was 12.9%, the viability, T/C [35] was 12.8% and the viability, T/C [36] was 11.2%.

Work on `O=C(c1cc(Cc2n[nH]c(=O)c3ccccc23)ccc1F)N1CCN(C(=O)C2CC2)CC1` + CN(C)c1ccc(Nc2c3ccc(NC(=O)CCN4CCCC4)cc3nc3cc(NC(=O)CCN4CCCC4)ccc23)cc1 yielded an IC50 (second compound 0.0316 µM) of over 10 µM, an IC50 (second compound 0.1 µM) of over 10 µM and an IC50 (second compound 0.316 µM) of over 10 µM. For the same compound, the IC50 (second compound 1 µM) was over 10 µM, the IC50 (second compound 3.16 µM) was over 10 µM and the IC50 (second compound 10 µM) was over 10 µM. The viability, T/C [1] was 90.6%, the viability, T/C [2] was 92.6% and the viability, T/C [3] was 103%. For the same compound, the viability, T/C [4] was 103%, the viability, T/C [5] was 111% and the viability, T/C [6] was 79.3%. It also gave a viability, T/C [7] of 96.3%, a viability, T/C [8] of 98.7% and a viability, T/C [9] of 102%. The viability, T/C [10] was 91.2%, the viability, T/C [11] was 86.5% and the viability, T/C [12] was 72.5%. The viability, T/C [13] was 84.7%, the viability, T/C [14] was 90.8% and the viability, T/C [15] was 91.2%. The viability, T/C [16] was 95.3%, the viability, T/C [17] was 105% and the viability, T/C [18] was 81.5%. It also gave a viability, T/C [19] of 107%, a viability, T/C [20] of 91.5% and a viability, T/C [21] of 90%. The viability, T/C [22] was 86.4%, the viability, T/C [23] was 89.4% and the viability, T/C [24] was 73.6%. The viability, T/C [25] was 96.9%, the viability, T/C [26] was 93.7% and the viability, T/C [27] was 89.9%. It also gave a viability, T/C [28] of 90.8%, a viability, T/C [29] of 95.4% and a viability, T/C [30] of 68.4%. The viability, T/C [31] was 94.7%, the viability, T/C [32] was 89.9% and the viability, T/C [33] was 77.4%. The viability, T/C [34] was 85.8%, the viability, T/C [35] was 84.7% and the viability, T/C [36] was 59.7%.
